From patent publication US20120145955A1, “COMPOSITION OF HCFO-1233zd AND POLYOL BLENDS FOR USE IN POLYURETHANE FOAM” (Arkema Inc., priority 2009, published 2012)
Read-outs that look alike come from different tables or passages of the source.

Tests used:
[1] = AMES testing (genotoxicity); format: cell-based; details: trans isomer of HCFO-1233zd compared with the cis isomer
[2] = Solubility experiments: vapor pressure of blowing agent in polyol in a pressure vessel; format: physicochemical
Experimental: The vapor pressure of a foam blowing agent in polyurethane materials was evaluated in an experimental apparatus consisting of a pressure vessel with magnetic stirring, a pressure transducer and a temperature transducer. The temperature inside the vessel was controlled within 0.1° C. and the pressure controlled to within 0.1%.
Into the pressure vessel (volume about 100 ml), 50 g of polyol was loaded. The vessel was then placed under vacuum to remove air. The change of pressure in the metal cylinder was monitored to ensure that there were no leaks. The blowing agent was introduced into the vessel by the use of a specially designed gas syringe. The amount of blowing agent loaded was verified by measuring the weight of the syringe before and after introduction. The temperature of the vessel was maintained at 50° C. (above the boiling point of the blowing agents being tested) and the speed of the shaker was maintained at 300 rpm. The vapor pressure of the blowing agent was recorded as a function of the time. Sufficient time was allowed for the system to reach equilibrium. After reaching equilibrium, the amount of blowing agent dissolved in the polyol was calculated as the difference between the added blowing agent […] and the blowing agent present in the gas phase of the vessel.
Then another small amount of blowing agent was added in the vessel. The procedure was repeated several times until the pressure in the vessel was equal to the liquid-gas equilibrium vapor pressure of the blowing agent at this temperature (maximum attainable pressure at temperatures below the critical temperature of the blowing agent).

[3] = known to the people skilled in the art; cited from earlier work

FC(F)(F)/C=C/Cl [E-HCFO-1233zd]
genotoxicity in AMES testing [1]: significantly lower genotoxicity | area between the polyether polyol and polyester polyol curves (range of solubilities) ([2]; compared with HCFC141b and HFC245fa, 50° C.): significantly larger | solubility relative to current blowing agents ([2]; polyether polyol and polyester polyol, 50° C.): solubility comparable to current blowing agents | solubility curves (vapor pressure versus part of blowing agent per 100 part of polyol by weight) ([2]; polyether polyol and polyester polyol, 50° C., FIG. 1): between those for HFC245fa and HCFC141b

FC(F)(F)/C=C/Cl [HCFO-1233zd, trifluoro-monochloropropenes]
solubility in polyols ([2]; different ratios of polyether polyols and polyester polyols, benchmarked against HCFC141b and HFC245fa): falls in between HFC245fa and HCFC141b

FC(F)CC(F)(F)F [HFC245fa]
solubility in polyols [3]: relatively less soluble
